In ChEMBL document CHEMBL1909046, “DrugMatrix in vitro pharmacology data”:

What was measured:
Cytochrome P450 3A4 = Cytochrome P450 3A4 (Homo sapiens, UniProt P08684); details: bti-tn-5b1-4; also: in other assays of this panel Not Active means under 50% inhibition at 10 µM
Caspase-1 = biological target: T1, Caspase-1 (Homo sapiens, UniProt P29466); set-up: species or system Escherichia coli;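 also: Caspase-1 enzyme inhibition assay with a peptide substrate; in other assays of this panel Not Active means under 50% inhibition at 10 µM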
T1 sequence (P29466 whole entry): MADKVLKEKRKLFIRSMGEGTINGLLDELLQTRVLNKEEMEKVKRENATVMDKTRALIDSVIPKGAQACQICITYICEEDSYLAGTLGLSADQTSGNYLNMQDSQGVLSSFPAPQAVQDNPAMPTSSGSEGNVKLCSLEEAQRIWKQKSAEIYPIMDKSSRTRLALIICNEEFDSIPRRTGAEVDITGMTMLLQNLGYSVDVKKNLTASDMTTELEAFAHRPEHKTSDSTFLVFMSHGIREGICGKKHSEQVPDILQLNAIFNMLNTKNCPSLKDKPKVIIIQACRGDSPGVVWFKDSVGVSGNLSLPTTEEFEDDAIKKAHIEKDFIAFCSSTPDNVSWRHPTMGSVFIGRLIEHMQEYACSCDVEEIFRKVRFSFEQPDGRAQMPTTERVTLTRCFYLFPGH

[1] = biological target: Protein kinase C alpha type (Homo sapiens, UniProt P17252); type: cell-based; details: sf9;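 also: inhibition of PKCalpha kinase activity measured in an enzyme assay with histone as the phosphorylation substrate; in other assays of this panel Not Active means under 50% inhibition at 10 µM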
[2] = DRUGMATRIX: Atrial Natriuretic Factor (ANF) radioligand binding (ligand: [125I] ANF (rat)); type: cell membranes, Cavia porcellus, Dunkin-Hartley, Adrenal gland, Membrane; details: Not Active = under 50% inhibition at 10 µM
[3] = biological target: T2, Angiotensin-converting enzyme (Oryctolagus cuniculus, UniProt P12822); assay: biochemical; type: tissue-based, Lung;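 also: enzymatic inhibition of angiotensin-converting enzyme measured with FAPGG as the substrate; in other assays of this panel Not Active means under 50% inhibition at 10 µM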
T2 sequence (P12822 whole entry): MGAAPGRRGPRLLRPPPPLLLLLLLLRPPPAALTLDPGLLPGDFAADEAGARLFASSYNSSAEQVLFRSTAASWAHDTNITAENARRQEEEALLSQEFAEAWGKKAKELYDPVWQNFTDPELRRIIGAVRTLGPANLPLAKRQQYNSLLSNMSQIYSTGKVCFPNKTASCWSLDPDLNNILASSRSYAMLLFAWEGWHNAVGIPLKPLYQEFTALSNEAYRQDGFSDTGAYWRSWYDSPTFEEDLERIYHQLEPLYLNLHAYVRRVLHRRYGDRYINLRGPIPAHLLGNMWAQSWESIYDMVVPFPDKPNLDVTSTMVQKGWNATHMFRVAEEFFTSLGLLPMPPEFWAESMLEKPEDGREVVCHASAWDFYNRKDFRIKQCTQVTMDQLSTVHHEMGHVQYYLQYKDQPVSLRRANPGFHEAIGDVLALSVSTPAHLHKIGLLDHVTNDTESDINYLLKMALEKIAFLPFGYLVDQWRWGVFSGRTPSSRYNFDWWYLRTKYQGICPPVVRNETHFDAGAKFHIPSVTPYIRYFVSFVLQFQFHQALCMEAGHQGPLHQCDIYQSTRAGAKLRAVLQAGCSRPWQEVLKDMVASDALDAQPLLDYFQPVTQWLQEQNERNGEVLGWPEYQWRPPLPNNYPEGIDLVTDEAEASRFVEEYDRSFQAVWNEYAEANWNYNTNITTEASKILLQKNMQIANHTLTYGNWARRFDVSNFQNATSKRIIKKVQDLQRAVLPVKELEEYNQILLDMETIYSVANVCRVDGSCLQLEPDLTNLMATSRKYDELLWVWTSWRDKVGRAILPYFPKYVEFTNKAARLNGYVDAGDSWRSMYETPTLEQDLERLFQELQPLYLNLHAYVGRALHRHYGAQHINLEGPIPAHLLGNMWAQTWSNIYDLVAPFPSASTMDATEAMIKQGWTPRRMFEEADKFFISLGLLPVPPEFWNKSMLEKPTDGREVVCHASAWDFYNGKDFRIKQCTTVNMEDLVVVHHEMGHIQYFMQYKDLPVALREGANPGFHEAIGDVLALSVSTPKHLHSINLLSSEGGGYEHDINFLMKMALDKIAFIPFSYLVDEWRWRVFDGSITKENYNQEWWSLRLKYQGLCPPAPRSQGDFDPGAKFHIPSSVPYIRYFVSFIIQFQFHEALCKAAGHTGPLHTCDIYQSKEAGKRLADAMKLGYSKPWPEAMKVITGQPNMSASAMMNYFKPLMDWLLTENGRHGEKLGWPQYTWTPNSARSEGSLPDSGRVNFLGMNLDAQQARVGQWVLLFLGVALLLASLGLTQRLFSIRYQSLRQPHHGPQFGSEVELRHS

[4] = biological target: T3, 5-hydroxytryptamine receptor 2C (Homo sapiens, UniProt P28335); assay: DRUGMATRIX: Serotonin (5-Hydroxytryptamine) 5-HT2C radioligand binding (ligand: [3H] Mesulergine); type: cell membranes, CHO-K1, Membrane; details: cho-k1; Not Active = under 50% inhibition at 10 µM
T3 sequence (P28335 whole entry): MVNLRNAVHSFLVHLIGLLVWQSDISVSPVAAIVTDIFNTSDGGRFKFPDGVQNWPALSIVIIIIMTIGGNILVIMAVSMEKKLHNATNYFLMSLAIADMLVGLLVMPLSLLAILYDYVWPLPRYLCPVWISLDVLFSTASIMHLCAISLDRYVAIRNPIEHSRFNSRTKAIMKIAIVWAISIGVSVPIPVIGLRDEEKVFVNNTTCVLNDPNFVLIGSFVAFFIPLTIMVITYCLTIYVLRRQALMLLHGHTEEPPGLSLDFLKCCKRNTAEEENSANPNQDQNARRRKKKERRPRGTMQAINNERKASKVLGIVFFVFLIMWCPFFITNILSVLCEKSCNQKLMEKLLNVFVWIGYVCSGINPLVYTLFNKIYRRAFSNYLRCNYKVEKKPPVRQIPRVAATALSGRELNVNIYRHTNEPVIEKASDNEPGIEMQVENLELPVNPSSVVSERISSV

[5] = DRUGMATRIX: Tumor Necrosis Factor (TNF), Non-Selective radioligand binding (ligand: [125I] TNF-alpha); type: cell membranes, Membrane; details: u-937; Not Active = under 50% inhibition at 10 µM
[6] = biological target: Beta-2 adrenergic receptor (Homo sapiens, UniProt P07550); assay: DRUGMATRIX: Adrenergic beta2 radioligand binding (ligand: [3H] CGP-12177); type: cell membranes, Membrane; details: cho; Not Active = under 50% inhibition at 10 µM
[7] = DRUGMATRIX: Glutamate, NMDA, Agonism radioligand binding (ligand: [3H] CGP-39653); type: cell membranes, Rattus norvegicus, Wistar, Cerebral cortex, Membrane; details: Not Active = under 50% inhibition at 10 µM
[8] = biological target: Prostaglandin G/H synthase 1 (Homo sapiens, UniProt P23219); assay: biochemical; type: tissue-based, Platelet; details: platelet
[9] = biological target: Platelet-activating factor receptor (Homo sapiens, UniProt P25105); assay: biochemical; type: tissue-based; details: platelet; also: in other assays of this panel Not Active means under 50% inhibition at 10 µM
[10] = DRUGMATRIX: Nicotinic Acetylcholine radioligand binding (ligand: [125I] Epibatidine); type: cell membranes, Membrane; details: imr-32; Not Active = under 50% inhibition at 10 µM

Sequence of Platelet-activating factor receptor (P25105 whole entry): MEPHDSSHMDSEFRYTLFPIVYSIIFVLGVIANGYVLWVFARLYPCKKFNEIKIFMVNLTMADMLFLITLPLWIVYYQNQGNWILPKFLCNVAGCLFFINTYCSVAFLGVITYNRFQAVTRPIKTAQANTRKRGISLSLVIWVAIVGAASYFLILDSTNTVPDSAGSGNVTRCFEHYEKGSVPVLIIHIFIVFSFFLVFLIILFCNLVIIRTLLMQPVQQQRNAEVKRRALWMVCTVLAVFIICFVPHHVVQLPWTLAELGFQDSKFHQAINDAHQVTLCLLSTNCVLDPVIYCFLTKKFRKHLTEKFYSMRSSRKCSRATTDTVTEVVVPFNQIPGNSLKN
Sequence of Prostaglandin G/H synthase 1 (P23219 whole entry): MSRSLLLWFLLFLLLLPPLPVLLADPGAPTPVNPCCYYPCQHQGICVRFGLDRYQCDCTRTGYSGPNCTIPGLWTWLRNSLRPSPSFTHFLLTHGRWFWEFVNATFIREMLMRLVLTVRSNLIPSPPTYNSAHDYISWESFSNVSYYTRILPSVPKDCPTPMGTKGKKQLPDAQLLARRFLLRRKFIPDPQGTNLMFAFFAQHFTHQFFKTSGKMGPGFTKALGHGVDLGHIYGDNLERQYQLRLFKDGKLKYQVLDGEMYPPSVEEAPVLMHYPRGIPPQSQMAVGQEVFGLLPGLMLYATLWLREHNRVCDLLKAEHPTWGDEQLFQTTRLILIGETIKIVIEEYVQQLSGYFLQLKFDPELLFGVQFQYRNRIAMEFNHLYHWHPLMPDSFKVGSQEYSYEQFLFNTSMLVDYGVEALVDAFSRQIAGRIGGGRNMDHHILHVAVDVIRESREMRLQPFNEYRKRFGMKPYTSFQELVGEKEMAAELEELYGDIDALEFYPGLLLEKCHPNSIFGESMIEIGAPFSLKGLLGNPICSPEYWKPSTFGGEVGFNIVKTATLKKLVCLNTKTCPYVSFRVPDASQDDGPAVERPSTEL
Sequence of Cytochrome P450 3A4 (P08684 whole entry): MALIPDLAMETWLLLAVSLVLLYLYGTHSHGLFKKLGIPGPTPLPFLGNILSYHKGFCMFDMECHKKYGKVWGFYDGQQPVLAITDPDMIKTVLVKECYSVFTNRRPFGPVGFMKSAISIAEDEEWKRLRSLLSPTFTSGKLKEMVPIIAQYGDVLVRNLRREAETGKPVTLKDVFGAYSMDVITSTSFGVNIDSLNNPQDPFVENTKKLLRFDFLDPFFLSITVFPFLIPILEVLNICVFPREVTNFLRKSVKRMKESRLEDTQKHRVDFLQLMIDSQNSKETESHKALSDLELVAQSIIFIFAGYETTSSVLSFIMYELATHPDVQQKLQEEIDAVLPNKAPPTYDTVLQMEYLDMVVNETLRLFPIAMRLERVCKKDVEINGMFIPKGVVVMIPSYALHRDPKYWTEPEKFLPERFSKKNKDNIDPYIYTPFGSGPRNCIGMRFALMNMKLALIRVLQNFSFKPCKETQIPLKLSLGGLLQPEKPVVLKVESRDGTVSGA

OXALIPLATIN
Not Active: IC50 (Cytochrome P450 3A4) | Ki (Cytochrome P450 3A4) | IC50 (Caspase-1) | Ki (Caspase-1) | IC50 [1] | Ki [1] | IC50 [2] | Ki [2] | IC50 [3] | Ki [3] | IC50 [4] | Ki [4] | IC50 [5] | Ki [5] | IC50 [6] | Ki [6] | IC50 [7] | Ki [7] | IC50 [8] | Ki [8] | IC50 [9] | Ki [9] | IC50 [10] | Ki [10]
